The values that follow come from article PMC9000735, “In Vitro Alpha-Glucosidase Inhibitory Activity and the Isolation of Luteolin from the Flower of Gymnanthemum amygdalinum (Delile) Sch. Bip ex Walp” (Molecules, 2022).

For assay [1], the target named is T1, α-glucosidase (Saccharomyces cerevisiae, UniProt P53341).
T1 construct: purchased Sigma-Aldrich G5003
Kind of assay: biochemical. The note with it: for IC50: mean ± SD, n = 3, linear regression. Here is the method:
A specific spray reagent, citroborate (5 g citric acid, 5 g boric acid, and 100 mL ethanol), and 10% (v/v) H2SO4 in a MeOH solution were used to identify flavonoids and other compounds. Additionally, during extraction and separation, the entire solvents were distilled before use, making them of technical grade.
Alpha-glucosidase inhibition was assessed using the adopted method with slight modifications. Phosphate buffer solution (36 μL), a sample solution with different concentrations ([…]), and pNPG substrate with 6 mM concentration (17 μL) were successively added to 96 microplate wells. The incubation of this mixture was performed at 37 °C for 5 min. In each well, 17 μL of alpha-glucosidase solution at 0.2 U/mL was added to obtain a total volume of […], which was followed by incubation at 37 °C for 15 min. Furthermore, the initial reaction was brought to completion by the addition of Na2CO3 solution (100 μL) at 200 mM. […] Percentage inhibition was used to express the inhibitory activity of alpha-glucosidase, while the calculation followed the formula below:
Inhibition percentage (%) = (B1–B2)/B1 × 100%.
B1 = Blank absorbance * − control of blank absorbance **
B2 = Sample absorbance − control of sample absorbance ***
The IC50 was calculated using a linear regression equation (y = a + bx) in which the sample concentration was represented on the x-axis and the percentage inhibition was represented on the y-axis.

The subject of assay [2] is alpha-glucosidase. Also noted: method as in PMID 35215317. Conditions: cited from earlier work.

In general, inhibition refers to the percentage by which the read-out fell short of the control. For orientation: IC50 means the midpoint of a concentration-inhibition curve. The low end stands for higher potency, the high end for lower potency.

Where two headings read alike, the source gives them in different places.

T1 sequence (P53341 whole entry): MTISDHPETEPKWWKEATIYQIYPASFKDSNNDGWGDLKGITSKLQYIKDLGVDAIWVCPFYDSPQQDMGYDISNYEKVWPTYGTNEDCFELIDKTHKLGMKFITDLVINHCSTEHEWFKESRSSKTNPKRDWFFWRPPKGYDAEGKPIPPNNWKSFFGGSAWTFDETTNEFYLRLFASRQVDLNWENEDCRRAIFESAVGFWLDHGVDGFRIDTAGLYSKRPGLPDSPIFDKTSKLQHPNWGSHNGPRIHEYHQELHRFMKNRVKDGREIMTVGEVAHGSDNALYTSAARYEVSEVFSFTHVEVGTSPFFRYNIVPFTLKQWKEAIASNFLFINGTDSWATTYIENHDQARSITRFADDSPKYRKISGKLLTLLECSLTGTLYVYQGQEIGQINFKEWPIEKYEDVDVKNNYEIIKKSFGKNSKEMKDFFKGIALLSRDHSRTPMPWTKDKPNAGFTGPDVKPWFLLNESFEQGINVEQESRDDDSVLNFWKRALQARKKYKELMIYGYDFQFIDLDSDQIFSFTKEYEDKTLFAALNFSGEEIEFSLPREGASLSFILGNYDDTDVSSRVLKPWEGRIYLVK

With `C[C@H]1O[C@H](O[C@H]2[C@H](O)[C@@H](O)[C@@H](O[C@H]3[C@H](O)[C@@H](O)C(O)O[C@@H]3CO)O[C@@H]2CO)[C@H](O)[C@@H](O)[C@@H]1N[C@H]1C=C(CO)[C@@H](O)[C@H](O)[C@H]1O` (stereo partly shown) [Acarbose, acarbose], in assay [1], 100 µg/mL produced 42.13 ± 0.12% inhibition and testing at 200 µg/mL gave an inhibition of 66 ± 1.11%. In assay [1] (read-out: Inhibition (in %)), the inhibition at 100 µg/mL was determined as 43.1 ± 0.92% and the inhibition at 200 µg/mL was found to be 66.8 ± 2.11%.

As for `O=c1cc(-c2ccc(O)c(O)c2)oc2cc(O)cc(O)c12` [Compound 1, 2-(3,4-dihydroxyphenyl)-5,7-dihydroxy-4H-chromen-4-one], the inhibition mechanism type result in assay [2] is on record as “non-competitive”. This compound also showed an IC50 in assay [1] of 22.8 µM.

With `COc1c(-c2ccc(O)c(O)c2)oc2cc(O)cc(O)c2c1=O` [Compound 2, 2-(3,4-dihydroxyphenyl)-5,7-dihydroxy-3-methoxy-4H-chromen-4-one], in assay [1], the IC50 is 126 µM.
